Measurements reported in publication PMC10901097, “Vanillin derivatives as antiamnesic agents in scopolamine-induced memory impairment in mice” (Heliyon, 2024).
“Also recorded” adds a separate entry of the source.

Assays:
[1] = DPPH free radical scavenging assay; settings: triplicate (n = 3); 517 nm, 15 min
Description: A slightly modified DPPH assay as described by Brand William was followed. Initially, the absorbance of 3 mL from stock DPPH (20 mg/100 mL of methanol) was adjusted to 0.75 at 517 nm. The DPPH stock solution was covered and kept in the dark overnight to generate free radicals. About 2 mL of each dilution of different ranges (0.1–3.5 μM) was prepared from SB1– SB6 stock (5 mg/5 mL of methanol) were mixed with 2 mL of pre-incubated DPPH stock solution and incubated for 15 min at room temperature. Ascorbic acid was used as a standard. The absorbance of the reaction mixtures was recorded at 517 nm and the % inhibition was calculated by Equation (1):[1] %inhibition=A−B/A×100
where A = absorbance of pure DPPH in oxidized form, B = absorbance of the sample, which
Was measured after 15 min of reaction with DPPH.

[2] = ABTS free radical scavenging assay; settings: triplicate (n = 3); 745 nm, 15 min
Description: The antioxidant potential of the synthesized compounds were also determined using ABTS free radical following a reported standard protocol. ABTS (7 mM) and K2S2O8 (2.45 mM) were mixed (in methanol) and put in the dark for 24 h for free radicals’ formation, which was then used as stock solution. The absorbance of 3 mL from the stock ABTS was adjusted to 0.75 at 745 nm, which was considered a control. About 300 μl of each of the serial dilutions (0.1–3.5 μM) of SB1– SB6 and 3 mL of stock ABTS were mixed and incubated for 15 min at 25 °C, and their absorbance was measured at 745 nm. Ascorbic acid was used as a control. The scavenging activity was calculated by Equation (1).

[3] = tested on: scopolamine-induced memory impairment in mice; assay: Y-maze spontaneous alternation, scopolamine-induced amnesia; type: in vivo, Albino mice; settings: for effect on spontaneous alternation / short-term memory retention in Y-Maze (significance): 50 and 100 mg/kg b.w, compared with scopolamine-injected group
Description: (§1) Albino mice (20–23 g b. w.) were brought from National Institute of Health, Islamabad, Pakistan, and the mice were retained in animal house at University of Malakand at Department of Pharmacy for acclimation. Normal pellet diet and water were provided to all the animals and were kept for 12 h of light-dark cycle under normal laboratory conditions (temperature in a range of 25 ± 2 °C, humidity of 56–66%). All protocols employed were approved from the Ethical Committee vide notification Pharm/EC-QRE/10–31/25 as per approved “Animal Bye-Laws 2008, Scientific Procedures Issue-I of the Malakand University” and the UK animal scientific procedure act (1986).
(§2) After acclimatization, the animals were grouped into different groups consisting of 6 animals each. […] It also can induce amyloid β deposition, oxidative stress, synaptic dysfunction, and learning/memory impairment in experimental animals. Group II received scopolamine along with galantamine as standard. […] The treatment was carried out continuously for 7 days and after treatment schedule, the animals were subjected to behavioural study using Y-maze and NORT.
To assess the short-term memory (amnesic) effect, the exploratory activity of mice were investigated using Y- maze apparatus. At a time, a single mouse was placed at Y-shaped maize and allowed to move freely for 5-min session and alterations were recorded as shown in Fig. 2. The percentage alternations were calculated as per reported protocol and mathematically as given in equation (2).[2] %Alternation=Spontaneousalternation/Totalnumberofarmentries−2×100
Fig. 2 (A). Schematic drawings of the Y-maze and the experimental procedures. The sample trial and test trials were conducted for 5 min at a 30 min interval. (B) The Y-Maze test diagrammatic figure. (a) The mouse was positioned in the middle of the fixed arm and faced the maze's centre during the test. (b) A mouse was considered to have entered an arm when all four of its paws passed the threshold inside the arm and the mouse's snout was pointed in the direction of the end of the arm. (C). Alternations consist of single, uninterrupted entries into each arm of the y-maze. There are three steps involved in each alternation. The steps of alternation are shown in (a) the first entrance into the arm 1; (b) the second entry into the arm 3; and (c) the third entry into the arm 2 [41, 42].

[4] = tested on: scopolamine-induced memory impairment in mice; assay: Novel object recognition test (NORT), scopolamine-induced amnesia; type: in vivo, Albino mice; settings: for effect on time spent with the new object N (exploration time) in NOR test: 50 and 100 mg/kg b.w (galantamine: standard), compared with scopolamine group; for effect on discrimination index in NOR test: 50 mg/kg and 100 mg/kg b.w, compared with scopolamine group / galantamine; for effect on latency time to discover familiar object (F) in NOR test: 50 and 100 mg/kg b.w, compared with scopolamine-injected group
Description: as §1
as §2, with “animals.” for “animals. Group II received scopolamine along with galantamine as standard.”
NORT was used to assess the effect of vanillin derivatives on memory in mice model. The apparatus employed in this test measures 40 cm wide, 40 cm long, and 66 cm tall. NORT entails a two-day habituation period, followed by a two-day training session and finally a testing or experimental period. During habituation, an empty box was used, two identical objects were placed in two corners of the box during training, and one unique object was replaced during testing as shown in Fig. 3. To test long-term memory in mice, a five-day washout period was provided before the NORT. The time spent in each phase was manually documented using a stopwatch.
Fig. 3 Procedures for novel object recognition (NORT). The three phases of the test are shown. In NORT, object identity is changed between training and test; object location is remained unchanged.

[5] = molecular target: T1, acetylcholinesterase (EC 3.1.1.7) (Homo sapiens, UniProt P22303); assay: biochemical; settings: triplicate (n = 3); 405 nm; read-out: IC50 (μM) AChE
T1 construct: purchased local market (no vendor named)
Excerpt: (§3) To evaluate the therapeutic effectiveness of the compounds as inhibitors of cholinesterases, the reported procedures were followed (Elman's protocol). Enzymes acetylcholinesterase (EC 3.1.1.7) and butyrylcholinesterase (EC 3.1.1.8) were purchased from local market.
The acetylcholinesterase inhibition assay is based on the principle of the hydrolytic breakdown of substrate; acetylthiocholine iodide by acetylcholinesterase enzyme. The AChE acts on acetylthiocholine to thiocholine which then react with DTNB that's leads towards the formations of anion (5-thio-2-nitrobenzoate) a yellow colour product which is then assessed via UV visible spectrophotometer at 405 nm.
The AChE, Ellman's Reagent (DTNB) and acetylthiocholine iodide (ATChI, substrate), and the test compound solutions were made in different concentrations ranges from (0.01–1.0 μM) were incubated per detail given in the Ellman's protocol. […] IC50 of each Schiff bases were calculated using Microsoft Excel 2013 software.

[6] = molecular target: T2, butyrylcholinesterase (EC 3.1.1.8) (Homo sapiens, UniProt P06276); assay: In-vitro BChE inhibitory assay (Ellman's protocol); type: biochemical; settings: triplicate (n = 3); 405 nm
T2 construct: purchased local market (no vendor named)
Description: as §3
The absorbance at 405 nm was measured and the data were analysed in triplicate.

[7] = 50 mg/kg b.w (lower test dose), 7 days, with scopolamine 2 mg/kg i.p., mean ± SEM, n = 6

T2 sequence (P06276 29-602): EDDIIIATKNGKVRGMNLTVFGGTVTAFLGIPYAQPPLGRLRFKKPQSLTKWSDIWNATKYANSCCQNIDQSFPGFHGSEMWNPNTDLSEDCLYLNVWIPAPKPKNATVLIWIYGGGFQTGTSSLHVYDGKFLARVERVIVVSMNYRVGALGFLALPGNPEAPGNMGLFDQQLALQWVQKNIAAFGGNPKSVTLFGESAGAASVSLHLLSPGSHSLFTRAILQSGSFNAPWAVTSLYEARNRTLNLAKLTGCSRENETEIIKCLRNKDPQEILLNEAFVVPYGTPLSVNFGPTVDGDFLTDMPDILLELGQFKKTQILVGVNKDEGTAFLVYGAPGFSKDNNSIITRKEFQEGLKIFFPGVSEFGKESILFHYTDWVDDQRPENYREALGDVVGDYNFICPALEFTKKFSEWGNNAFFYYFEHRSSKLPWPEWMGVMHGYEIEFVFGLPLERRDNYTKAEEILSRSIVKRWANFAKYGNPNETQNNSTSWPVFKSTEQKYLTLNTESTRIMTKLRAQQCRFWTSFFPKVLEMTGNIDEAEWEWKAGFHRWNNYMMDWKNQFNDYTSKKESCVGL
T1 sequence (P22303 32-614, species assumed): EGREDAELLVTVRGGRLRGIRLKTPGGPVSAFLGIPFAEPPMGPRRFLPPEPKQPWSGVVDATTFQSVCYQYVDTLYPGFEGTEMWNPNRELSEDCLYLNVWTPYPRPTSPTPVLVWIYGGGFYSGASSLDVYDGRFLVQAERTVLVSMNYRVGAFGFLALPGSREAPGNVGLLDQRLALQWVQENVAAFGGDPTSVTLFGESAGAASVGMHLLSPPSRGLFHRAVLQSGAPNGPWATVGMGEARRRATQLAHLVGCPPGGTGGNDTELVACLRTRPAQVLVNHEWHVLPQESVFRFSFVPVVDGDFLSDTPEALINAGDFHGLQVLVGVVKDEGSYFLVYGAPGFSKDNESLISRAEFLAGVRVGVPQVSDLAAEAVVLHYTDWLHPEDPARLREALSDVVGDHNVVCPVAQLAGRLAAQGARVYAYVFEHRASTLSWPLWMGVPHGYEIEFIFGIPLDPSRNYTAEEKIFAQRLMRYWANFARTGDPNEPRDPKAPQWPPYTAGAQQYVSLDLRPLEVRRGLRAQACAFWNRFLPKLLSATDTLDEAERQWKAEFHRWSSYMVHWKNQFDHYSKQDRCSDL

SMILES	IC50 [1]	IC50 [2]	spontaneous alternation rate in Y-Maze ([3]; standard group: galantamine with scopolamine, P < 0.001 vs scopolamine-treated group)	effect on time spent with the new object N (exploration time) in NOR test [4]	IC50 [5]	IC50 [6]	spontaneous alternation rate in Y-Maze [3, 7]	effect on spontaneous alternation / short-term memory retention in Y-Maze (significance) [3]	effect on discrimination index in NOR test [4]	effect on latency time to discover familiar object (F) in NOR test [4]	changes in the memory and cognition of mice (NORT) ([4]; mouse, in vivo)	spontaneous alternation rate in Y-Maze ([3]; scopolamine-treated group, 2 mg/kg i.p. alone, n = 6)
O=C1O[C@H]([C@@H](O)CO)C(O)=C1O [Ascorbic acid, reference compound]	0.074 µM	0.073 µM	–	–	–	–	–	–	–	–	–	–
COc1ccc2c3c1O[C@H]1C[C@@H](O)C=C[C@@]31CCN(C)C2 [Galantamine, reference compound]	–	–	more than 80%	significant increase	–	–	–	–	–	–	–	–
COc1cc(/C=N/c2ccccc2C(F)(F)F)ccc1O [SB-1, (E)-2-methoxy-4-(((2-(trifluoromethyl)phenyl)imino)methyl)phenol]	0.588 µM	0.208 µM	–	significant increase	0.078 µM	0.265 µM	69.44 ± 1%	significantly improved	most prominent activity; also recorded: more pronounced as compared to standard drug	decreased the latency time significantly	–	–
COc1ccc(/C=N/c2ccccc2C(F)(F)F)cc1O [SB-2, (E)-2-methoxy-5-(((2-(trifluoromethyl)phenyl)imino)methyl)phenol]	0.447 µM	0.401 µM	–	insignificant activity	0.61 µM	0.188 µM	–	no significant effect	insignificant activity	insignificant	did not cause any changes	–
Oc1ccc(/C=N/c2ccccc2C(F)(F)F)cc1 [SB-3, (E)-4-(((2-(trifluoromethyl)phenyl)imino)methyl)phenol]	0.305 µM	0.118 µM	–	significant increase	0.157 µM	0.057 µM	68.92 ± 1%	significantly improved	most prominent activity	decreased the latency time significantly	–	–
Cc1ccc(/N=C/c2ccc(O)cc2)c(Cl)c1 [SB-4, (E)-4-(((2-chloro-4-methylphenyl)imino)methyl)phenol]	0.804 µM	0.969 µM	–	significant increase	0.108 µM	0.367 µM	–	–	most prominent activity	decreased the latency time significantly	–	–
Cc1ccc(/N=C/c2ccccc2Br)c(Cl)c1 [SB-5, (E)-N-(2-bromobenzylidene)-2-chloro-4-methylaniline]	0.72 µM	0.19 µM	–	insignificant activity	0.442 µM	0.186 µM	–	–	insignificant activity	significant decrease	–	–
Cc1ccc(/N=C/c2ccc[nH]2)c(Cl)c1 [SB-6, (E)-N-((1H-pyrrol-2-yl)methylene)-2-chloro-4-methylaniline]	2.8 µM	3.3 µM	–	slight activity	–	0.117 µM	–	–	–	decreased the latency time significantly	–	–
CN1[C@@H]2C[C@@H](OC(=O)[C@H](CO)c3ccccc3)C[C@H]1[C@@H]1O[C@@H]12 [Scopolamine]	–	–	–	–	–	–	–	–	–	–	–	38.16%
